# Measurements: the supplement of paper PMC10307832
# What was measured:
# Test in all cases: relative viability (nuclei count vs DMSO), 5 days (fraction); higher = more cells survive
# NCI-H1944 = system: NCI-H1944
# Method in brief: (§1)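 Medians of duplicate plates are given as relative viability. That measure is the nuclei count in treated wells divided by the count in vehicle wells. Counts were taken on 4× images of lung cancer cell lines in 1536-well plates, 5 days after pin-tool dosing the day after seeding with one drug alone or a fixed anchor-drug dose plus five library-drug doses (not always all listed) in √10 steps.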
# H3255 = system: H3255
# Method in brief: as §1
# NCI-H2085 = system: NCI-H2085
# Method in brief: as §1
# SK-MES-1 = system: SK-MES-1
# Method in brief: as §1
# LCLC-97TM1 = system: LCLC-97TM1
# Method in brief: as §1
# UMC-11 = system: UMC-11
# Method in brief: as §1
# ChaGo-K-1 = system: ChaGo-K-1
# Method in brief: as §1
# NCI-H2405 = system: NCI-H2405
# Method in brief: as §1
# NCI-H1651 = system: NCI-H1651
# Method in brief: as §1
# NCI-H1563 = system: NCI-H1563
# Method in brief: as §1
# NCI-H1793 = system: NCI-H1793
# Method in brief: as §1
# EPLC-272H = system: EPLC-272H
# Method in brief: as §1
# HCC-827 = system: HCC-827
# Method in brief: as §1
# EMC-BAC-2 = system: EMC-BAC-2
# Method in brief: as §1
# NCI-H2087 = system: NCI-H2087
# Method in brief: as §1
# NCI-H520 = system: NCI-H520
# Method in brief: as §1
# NCI-H2023 = system: NCI-H2023
# Method in brief: as §1
# NCI-H650 = system: NCI-H650
# Method in brief: as §1
# NCI-H322M = system: NCI-H322M
# Method in brief: as §1
# NCI-H1355 = system: NCI-H1355
# Method in brief: as §1
# NCI-H1395 = system: NCI-H1395
# Method in brief: as §1
# LCLC-103H = system: LCLC-103H
# Method in brief: as §1
smiles,measurement,setting,value
O=C(O)c1ccc(-c2c[nH]c3ncc(-c4ccccc4)cc23)cc1C1CCCC1 + COc1cc2c(Oc3ccc(NC(=O)C4(C(=O)Nc5ccc(F)cc5)CC4)cc3F)ccnc2cc1OCCCN1CCOCC1 [Foretinib] (partner 0.25 µM),relative viability,NCI-H1944; first compound 0.04 µM,0.923
same,relative viability,NCI-H1944; first compound 0.1265 µM,0.988
same,relative viability,NCI-H1944; first compound 0.4 µM,0.911
same,relative viability,NCI-H1944; first compound 1.265 µM,0.807
same,relative viability,H3255; first compound 0.04 µM,0.934
same,relative viability,H3255; first compound 0.1265 µM,1.08
same,relative viability,H3255; first compound 0.4 µM,0.888
same,relative viability,H3255; first compound 1.265 µM,0.814
same,relative viability,NCI-H2085; first compound 0.04 µM,1.14
same,relative viability,NCI-H2085; first compound 0.1265 µM,0.988
same,relative viability,NCI-H2085; first compound 0.4 µM,0.845
same,relative viability,NCI-H2085; first compound 1.265 µM,0.56
same,relative viability,SK-MES-1; first compound 0.04 µM,0.963
same,relative viability,SK-MES-1; first compound 0.1265 µM,1.01
same,relative viability,SK-MES-1; first compound 0.4 µM,0.918
same,relative viability,SK-MES-1; first compound 1.265 µM,0.794
same,relative viability,LCLC-97TM1; first compound 0.04 µM,0.911
same,relative viability,LCLC-97TM1; first compound 0.1265 µM,1.03
same,relative viability,LCLC-97TM1; first compound 0.4 µM,0.892
same,relative viability,LCLC-97TM1; first compound 1.265 µM,0.525
same,relative viability,UMC-11; first compound 0.04 µM,1.01
same,relative viability,UMC-11; first compound 0.1265 µM,1.02
same,relative viability,UMC-11; first compound 0.4 µM,0.982
same,relative viability,UMC-11; first compound 1.265 µM,0.77
same,relative viability,ChaGo-K-1; first compound 0.04 µM,0.995
same,relative viability,ChaGo-K-1; first compound 0.1265 µM,0.928
same,relative viability,ChaGo-K-1; first compound 0.4 µM,0.833
same,relative viability,ChaGo-K-1; first compound 1.265 µM,0.863
same,relative viability,NCI-H2405; first compound 0.04 µM,1.05
same,relative viability,NCI-H2405; first compound 0.1265 µM,1.1
same,relative viability,NCI-H2405; first compound 0.4 µM,1.02
same,relative viability,NCI-H2405; first compound 1.265 µM,0.747
same,relative viability,NCI-H1651; first compound 0.04 µM,0.786
same,relative viability,NCI-H1651; first compound 0.1265 µM,0.806
same,relative viability,NCI-H1651; first compound 0.4 µM,0.792
same,relative viability,NCI-H1651; first compound 1.265 µM,0.607
same,relative viability,NCI-H1563; first compound 0.04 µM,0.924
same,relative viability,NCI-H1563; first compound 0.1265 µM,1.03
same,relative viability,NCI-H1563; first compound 0.4 µM,0.853
same,relative viability,NCI-H1563; first compound 1.265 µM,0.97
same,relative viability,NCI-H1793; first compound 0.04 µM,0.66
same,relative viability,NCI-H1793; first compound 0.1265 µM,0.75
same,relative viability,NCI-H1793; first compound 0.4 µM,0.702
same,relative viability,NCI-H1793; first compound 1.265 µM,0.602
same,relative viability,EPLC-272H; first compound 0.04 µM,0.694
same,relative viability,EPLC-272H; first compound 0.1265 µM,0.752
same,relative viability,EPLC-272H; first compound 0.4 µM,0.585
same,relative viability,EPLC-272H; first compound 1.265 µM,0.187
same,relative viability,HCC-827; first compound 0.04 µM,0.914
same,relative viability,HCC-827; first compound 0.1265 µM,1.08
same,relative viability,HCC-827; first compound 0.4 µM,0.957
same,relative viability,HCC-827; first compound 1.265 µM,0.543
same,relative viability,EMC-BAC-2; first compound 0.04 µM,0.997
same,relative viability,EMC-BAC-2; first compound 0.1265 µM,1.08
same,relative viability,EMC-BAC-2; first compound 0.4 µM,0.97
same,relative viability,EMC-BAC-2; first compound 1.265 µM,0.857
same,relative viability,NCI-H2087; first compound 0.04 µM,0.933
same,relative viability,NCI-H2087; first compound 0.1265 µM,1.16
same,relative viability,NCI-H2087; first compound 0.4 µM,1.06
same,relative viability,NCI-H2087; first compound 1.265 µM,0.901
same,relative viability,NCI-H520; first compound 0.04 µM,0.687
same,relative viability,NCI-H520; first compound 0.1265 µM,0.923
same,relative viability,NCI-H520; first compound 0.4 µM,0.78
same,relative viability,NCI-H520; first compound 1.265 µM,0.717
same,relative viability,NCI-H2023; first compound 0.04 µM,0.988
same,relative viability,NCI-H2023; first compound 0.1265 µM,1
same,relative viability,NCI-H2023; first compound 0.4 µM,0.895
same,relative viability,NCI-H2023; first compound 1.265 µM,0.749
same,relative viability,NCI-H650; first compound 0.04 µM,1.13
same,relative viability,NCI-H650; first compound 0.1265 µM,1.11
same,relative viability,NCI-H650; first compound 0.4 µM,0.888
same,relative viability,NCI-H650; first compound 1.265 µM,0.71
same,relative viability,NCI-H322M; first compound 0.04 µM,1.02
same,relative viability,NCI-H322M; first compound 0.1265 µM,1.03
same,relative viability,NCI-H322M; first compound 0.4 µM,0.993
same,relative viability,NCI-H322M; first compound 1.265 µM,0.824
same,relative viability,NCI-H1355; first compound 0.04 µM,1.08
same,relative viability,NCI-H1355; first compound 0.1265 µM,0.992
same,relative viability,NCI-H1355; first compound 0.4 µM,0.957
same,relative viability,NCI-H1355; first compound 1.265 µM,0.622
same,relative viability,NCI-H1395; first compound 0.04 µM,0.983
same,relative viability,NCI-H1395; first compound 0.1265 µM,1.05
same,relative viability,NCI-H1395; first compound 0.4 µM,1.01
same,relative viability,NCI-H1395; first compound 1.265 µM,0.944
same,relative viability,LCLC-103H; first compound 0.04 µM,0.702
same,relative viability,LCLC-103H; first compound 0.1265 µM,0.793
same,relative viability,LCLC-103H; first compound 0.4 µM,0.613
same,relative viability,LCLC-103H; first compound 1.265 µM,0.507
